Data taken from patent US9809598B2 (Merck Patent GmbH, priority 2014, dated 2017).

What was measured:
TNKS1 = target: T1, TNKS1 (Homo sapiens, UniProt O95271); assay: TNKS1 activity ELISA (autoparsylation assay); assay type: biochemical; settings: GST-tagged Tnks-1 (1023-1327 aa)
T1 construct: GST-tagged Tnks-1 (1023-1327 aa, prepared in-house); made in house
Summary of the method: (§1)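 Autoparsylation ELISA: biotinylated NAD serves as co-substrate for plate-bound GST-TNKS1/TNKS2, incubated with test compounds. Readout is HRP luminescence after streptavidin-HRP binding, referenced to the no-inhibitor reaction, from which IC50 values are derived.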

PARP-1 = target: T2, PARP-1 (Homo sapiens, UniProt P09874); assay: PARP-1 autoparsylation assay (HTRF); assay type: biochemical; settings: His-tagged Parp-1, autoparsylation HTRF
T2 construct: purchased Enzo Life Sciences GmbH, Lörrach, Germany
T2 sequence (P09874 whole entry): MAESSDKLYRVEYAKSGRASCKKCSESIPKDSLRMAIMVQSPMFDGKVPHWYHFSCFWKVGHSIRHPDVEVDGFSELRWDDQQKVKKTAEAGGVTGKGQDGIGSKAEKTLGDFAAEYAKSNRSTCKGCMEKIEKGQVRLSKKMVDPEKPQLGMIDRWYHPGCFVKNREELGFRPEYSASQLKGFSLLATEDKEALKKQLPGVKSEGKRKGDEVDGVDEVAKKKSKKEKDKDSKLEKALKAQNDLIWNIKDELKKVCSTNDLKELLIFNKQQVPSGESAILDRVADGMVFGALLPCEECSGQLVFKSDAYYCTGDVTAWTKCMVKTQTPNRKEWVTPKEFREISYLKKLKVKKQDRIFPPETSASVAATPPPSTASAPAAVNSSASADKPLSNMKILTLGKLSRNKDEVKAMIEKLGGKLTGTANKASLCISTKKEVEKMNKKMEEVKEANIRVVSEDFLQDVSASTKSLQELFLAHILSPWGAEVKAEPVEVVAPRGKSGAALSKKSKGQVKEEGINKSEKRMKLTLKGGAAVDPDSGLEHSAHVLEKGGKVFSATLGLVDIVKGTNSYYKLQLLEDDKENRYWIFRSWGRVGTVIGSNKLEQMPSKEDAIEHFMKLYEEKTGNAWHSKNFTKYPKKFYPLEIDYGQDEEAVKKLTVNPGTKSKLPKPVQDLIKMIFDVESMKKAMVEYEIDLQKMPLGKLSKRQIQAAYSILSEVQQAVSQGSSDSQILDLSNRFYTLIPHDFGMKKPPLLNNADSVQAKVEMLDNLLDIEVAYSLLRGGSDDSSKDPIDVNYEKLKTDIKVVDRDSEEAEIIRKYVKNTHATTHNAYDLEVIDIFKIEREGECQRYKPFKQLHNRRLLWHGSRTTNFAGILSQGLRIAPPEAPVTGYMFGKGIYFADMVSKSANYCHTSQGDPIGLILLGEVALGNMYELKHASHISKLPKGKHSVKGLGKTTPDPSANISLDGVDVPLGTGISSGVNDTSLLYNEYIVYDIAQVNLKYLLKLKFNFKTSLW
Summary of the method: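 HTRF emission ratio reports biotin-ADP-ribose self-transfer onto His-tagged PARP-1, with biotinylated NAD/NAD as co-substrate, sensed via cryptate anti-His and Xlent-streptavidin.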

Tankyrases = settings: read-out: EC50 [M] TNKS cellular assay; DLD1 cells, 24 hours, Axin2 increase
TNKS2 = target: T3, TNKS2 (Homo sapiens, UniProt Q9H2K2); assay: TNKS2 activity ELISA (autoparsylation assay); assay type: biochemical; settings: GST-tagged Tnks-2 (873-1166 aa); read-out: IC50 [M] TNKS2 ELISA
T3 construct: GST-tagged Tnks-2 (873-1166 aa, prepared in-house); made in house
T3 sequence (Q9H2K2 873-1166): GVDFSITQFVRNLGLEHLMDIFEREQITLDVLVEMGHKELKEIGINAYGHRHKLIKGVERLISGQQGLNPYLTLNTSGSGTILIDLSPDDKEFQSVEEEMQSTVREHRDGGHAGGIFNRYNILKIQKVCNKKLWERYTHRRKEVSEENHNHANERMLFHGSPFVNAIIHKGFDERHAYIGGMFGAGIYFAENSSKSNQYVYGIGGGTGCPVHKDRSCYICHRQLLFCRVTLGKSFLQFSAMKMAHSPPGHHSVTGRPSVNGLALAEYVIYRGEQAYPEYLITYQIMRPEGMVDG
Summary of the method: as §1

T1 sequence (O95271 1023-1327): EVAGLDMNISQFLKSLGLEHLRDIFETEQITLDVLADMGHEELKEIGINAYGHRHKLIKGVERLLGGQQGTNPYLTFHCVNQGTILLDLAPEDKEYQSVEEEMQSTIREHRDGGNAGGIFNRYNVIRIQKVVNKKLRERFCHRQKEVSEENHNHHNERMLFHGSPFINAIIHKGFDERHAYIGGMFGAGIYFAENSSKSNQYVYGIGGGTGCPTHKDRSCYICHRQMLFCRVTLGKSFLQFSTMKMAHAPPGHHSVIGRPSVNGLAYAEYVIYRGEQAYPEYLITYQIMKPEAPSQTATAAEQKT

| SMILES | IC50 (TNKS1) | IC50 (PARP-1) | EC50 (Tankyrases) | IC50 (TNKS2) |
| --- | --- | --- | --- | --- |
| COc1ccc(C(=O)C2CCN(C(=O)CCCc3nn4cc(F)cc4c(=O)[nH]3)CC2)cc1F [Compound C169, 6-Fluoro-2-{4-[4-(3-fluoro-4-methoxy-benzoyl)-piperidin-1-yl]-4-oxo-butyl}-3H-pyrrolo[2,1-f][1,2,4]triazin-4-one] | 0.17 nM | 2200 nM | 2.5e-09 M | 2.2e-10 M |
| COc1ccc(C(=O)C2CCN(C(=O)CCCc3nn4cc(F)cc4c(=O)[nH]3)CC2)cn1 [Compound C170, 6-Fluoro-2-{4-[4-(6-methoxy-pyridine-3-carbonyl)-piperidin-1-yl]-4-oxo-butyl}-3H-pyrrolo[2,1-f][1,2,4]triazin-4-one] | 0.67 nM | 2800 nM | 1.9e-08 M | 9.9e-10 M |
| N#Cc1cc(C2CCN(C(=O)CCCc3nn4cc(F)cc4c(=O)[nH]3)CC2)cnc1N [Compound C171, 6-Amino-1′-[4-(6-fluoro-4-oxo-3,4-dihydro-pyrrolo[2,1-f][1,2,4]triazin-2-yl)-butyryl]-1′,2′,3′,4′,5′,6′-hexahydro-[3,4′]bipyridinyl-5-carbonitrile] | 1.7 nM | 6300 nM | 4.6e-08 M | 3.6e-09 M |
| Nc1ncc(C2CCN(C(=O)CCCc3nn4cc(F)cc4c(=O)[nH]3)CC2)cc1-c1ncccn1 [Compound C172, 2-[4-(6-Amino-5-pyrimidin-2-yl-3′,4′,5′,6′-tetrahydro-2′H-[3,4′]bipyridinyl-1′-yl)-4-oxo-butyl]-6-fluoro-3H-pyrrolo[2,1-f][1,2,4]triazin-4-one] | 0.61 nM | 2500 nM | 6.8e-09 M | 5.3e-10 M |
| O=C(CCCc1nn2cc(F)cc2c(=O)[nH]1)N1CCC(c2nnc(-c3ccccc3)o2)CC1 [Compound C173, 6-Fluoro-2-{4-oxo-4-[4-(5-phenyl-[1,3,4]oxadiazol-2-yl)-piperidin-1-yl]-butyl}-3H-pyrrolo[2,1-f][1,2,4]triazin-4-one] | 15 nM | 3200 nM | 8.5e-08 M | 1.4e-08 M |
| N#Cc1ccc(OC2CCN(C(=O)CCCc3nn4cc(F)cc4c(=O)[nH]3)CC2)cc1 [Compound C174, 4-{1-[4-(6-Fluoro-4-oxo-3,4-dihydro-pyrrolo[2,1-f][1,2,4]triazin-2-yl)-butyryl]-piperidin-4-yloxy}-benzonitrile] | 64 nM | 270 nM | 7.8e-07 M | 4.9e-08 M |
| O=C(c1ccc(F)cc1)C1CCN(C(=O)CCCc2nn3cc(F)cc3c(=O)[nH]2)CC1 [Compound C175, 6-Fluoro-2-{4-[4-(4-fluoro-benzoyl)-piperidin-1-yl]-4-oxo-butyl}-3H-pyrrolo[2,1-f][1,2,4]triazin-4-one] | 0.47 nM | 4900 nM | 3.7e-08 M | 8.1e-10 M |
| CC(C)(O)c1ccc(C(=O)C2CCN(C(=O)CCCc3nn4cc(F)cc4c(=O)[nH]3)CC2)cc1 [Compound C177, 6-Fluoro-2-(4-{4-[4-(1-hydroxy-1-methyl-ethyl)-benzoyl]-piperidin-1-yl}-4-oxo-butyl)-3H-pyrrolo[2,1-f][1,2,4]triazin-4-one] | 7.1 nM | 8000 nM | 6.7e-08 M | 4.8e-09 M |
| COc1ccc(C(=O)C2CCN(C(=O)CCCc3nc4c(ccn4C)c(=O)[nH]3)CC2)cc1F [Compound C180, 2-{4-[4-(3-Fluoro-4-methoxy-benzoyl)-piperidin-1-yl]-4-oxo-butyl}-7-methyl-3,7-dihydro-pyrrolo[2,3-d]pyrimidin-4-one] | 0.18 nM | 1900 nM | 3.3e-09 M | < 1e-10 M |
| COc1ccc(C(=O)C2CCN(C(=O)CCCc3nc4c(ccn4C)c(=O)[nH]3)CC2)cn1 [Compound C181, 2-{4-[4-(6-Methoxy-pyridine-3-carbonyl)-piperidin-1-yl]-4-oxo-butyl}-7-methyl-3,7-dihydro-pyrrolo[2,3-d]pyrimidin-4-one] | 0.65 nM | 2300 nM | 7.3e-09 M | 2.4e-10 M |
| Cn1ccc2c(=O)[nH]c(CCCC(=O)N3CCC(c4cnc(N)c(C#N)c4)CC3)nc21 [Compound C182, 6-Amino-1′-[4-(7-methyl-4-oxo-4,7-dihydro-3H-pyrrolo[2,3-d]pyrimidin-2-yl)-butyryl]-1′,2′,3′,4′,5′,6′-hexahydro-[3,4′]bipyridinyl-5-carbonitrile] | 1.3 nM | 1500 nM | 2.4e-07 M | 6.5e-10 M |
| Cn1ccc2c(=O)[nH]c(CCCC(=O)N3CCC(c4cnc(N)c(-c5ncccn5)c4)CC3)nc21 [Compound C183, 2-[4-(6-Amino-5-pyrimidin-2-yl-3′,4′,5′,6′-tetrahydro-2′H-[3,4′]bipyridinyl-1′-yl)-4-oxo-butyl]-7-methyl-3,7-dihydro-pyrrolo[2,3-d]pyrimidin-4-one] | 0.54 nM | 1600 nM | 1e-08 M | 2.9e-10 M |
| Cn1ccc2c(=O)[nH]c(CCCC(=O)N3CCC(c4nnc(-c5ccccc5)o4)CC3)nc21 [Compound C184, 7-Methyl-2-{4-oxo-4-[4-(5-phenyl-[1,3,4]oxadiazol-2-yl)-piperidin-1-yl]-butyl}-3,7-dihydro-pyrrolo[2,3-d]pyrimidin-4-one] | 4.7 nM | 1900 nM | 4.7e-07 M | 2.5e-09 M |
| Cn1ccc2c(=O)[nH]c(CCCC(=O)N3CCC(C(=O)c4ccc(F)cc4)CC3)nc21 [Compound C186, 2-{4-[4-(4-Fluoro-benzoyl)-piperidin-1-yl]-4-oxo-butyl}-7-methyl-3,7-dihydro-pyrrolo[2,3-d]pyrimidin-4-one] | 0.41 nM | 1200 nM | 1.4e-08 M | 1.9e-09 M |
| Cn1cc(C(=O)C2CCN(C(=O)CCCc3nc4c(ccn4C)c(=O)[nH]3)CC2)cn1 [Compound C190, 7-Methyl-2-{4-[4-(1-methyl-1H-pyrazole-4-carbonyl)-piperidin-1-yl]-4-oxo-butyl}-3,7-dihydro-pyrrolo[2,3-d]pyrimidin-4-one] | 0.71 nM | 870 nM | 1.9e-07 M | 3.2e-10 M |
| COc1ccc(C(=O)C2CCN(C(=O)CCCc3nc4c(c(=O)[nH]3)COCC4)CC2)cc1F [Compound C192, 2-{4-[4-(3-Fluoro-4-methoxy-benzoyl)-piperidin-1-yl]-4-oxo-butyl}-3,5,7,8-tetrahydro-pyrano[4,3-d]pyrimidin-4-one] | 5.6 nM | 12000 nM | 4.9e-08 M | 2.1e-09 M |
| COc1ccc(C(=O)C2CCN(C(=O)CCCc3nc4c(c(=O)[nH]3)COCC4)CC2)cn1 [Compound C193, 2-{4-[4-(6-Methoxy-pyridine-3-carbonyl)-piperidin-1-yl]-4-oxo-butyl}-3,5,7,8-tetrahydro-pyrano[4,3-d]pyrimidin-4-one] | 7.4 nM | 8000 nM | 1e-07 M | 2.6e-09 M |
| N#Cc1cc(C2CCN(C(=O)CCCc3nc4c(c(=O)[nH]3)COCC4)CC2)cnc1N [Compound C194, 6-Amino-1′-[4-(4-oxo-3,5,7,8-tetrahydro-4H-pyrano[4,3-d]pyrimidin-2-yl)-butyryl]-1′,2′,3′,4′,5′,6′-hexahydro-[3,4′]bipyridinyl-5-carbonitrile] | 15 nM | 4900 nM | 3.1e-06 M | 4.5e-09 M |
| Nc1ncc(C2CCN(C(=O)CCCc3nc4c(c(=O)[nH]3)COCC4)CC2)cc1-c1ncccn1 [Compound C195, 2-[4-(6-Amino-5-pyrimidin-2-yl-3′,4′,5′,6′-tetrahydro-2′H-[3,4′]bipyridinyl-1′-yl)-4-oxo-butyl]-3,5,7,8-tetrahydro-pyrano[4,3-d]pyrimidin-4-one] | 2.1 nM | 3300 nM | 3.5e-08 M | 6.8e-10 M |
| N#Cc1ccc(OC2CCN(C(=O)CCCc3nc4c(c(=O)[nH]3)COCC4)CC2)cc1 [Compound C197, 4-{1-[4-(4-Oxo-3,5,7,8-tetrahydro-4H-pyrano[4,3-d]pyrimidin-2-yl)-butyryl]-piperidin-4-yloxy}-benzonitrile] | 560 nM | 3200 nM | 3.6e-06 M | 2.4e-07 M |
| O=C(c1ccc(F)cc1)C1CCN(C(=O)CCCc2nc3c(c(=O)[nH]2)COCC3)CC1 [Compound C198, 2-{4-[4-(4-Fluoro-benzoyl)-piperidin-1-yl]-4-oxo-butyl}-3,5,7,8-tetrahydro-pyrano[4,3-d]pyrimidin-4-one] | 12 nM | 5200 nM | 7.5e-08 M | 4e-09 M |
| Cn1cc(C(=O)C2CCN(C(=O)CCCc3nc4c(c(=O)[nH]3)COCC4)CC2)cn1 [Compound C202, 2-{4-[4-(1-Methyl-1H-pyrazole-4-carbonyl)-piperidin-1-yl]-4-oxo-butyl}-3,5,7,8-tetrahydro-pyrano[4,3-d]pyrimidin-4-one] | 8.1 nM | 18000 nM | 2.2e-06 M | 3.1e-09 M |
| Cc1cc2c(=O)[nH]c(CCCC(=O)N3CCC(C(=O)c4cnn(C)c4)CC3)cn2n1 [Compound C209, 2-Methyl-6-{4-[4-(1-methyl-1H-pyrazole-4-carbonyl)-piperidin-1-yl]-4-oxo-butyl}-5H-pyrazolo[1,5-a]pyrazin-4-one] | 0.76 nM | 8500 nM | 1e-08 M | 7.9e-10 M |
